# Laboratory results reported in patent US4661516A, “Diaminocyclohexane platinum complexes” (Research Corporation, priority 1984, dated 1987).
# Where “and” joins values, the source holds several entries; their conditions need not be identical. Equal values may be shown once. Read-outs that look alike come from different tables or passages of the source.
# Legend:
# [1] = tested on: Wild type L1210 leukemic cells; assay: In vitro cytotoxicity, wild type L1210 leukemic cells (L1210/0); type: cell-based; conditions: for ID50: L1210, 72 hours incubation; for ID50 L1210/0: 4320 min
# Description: Four ml of cell suspension (10^5 cells/ml) are added to culture tubes and the appropriate concentration (0.01, 0.1, 1 or 10 μg/ml final concentration) of drug added to the culture tubes. After 72 hours of incubation, the cell concentration of control and experimental cultures are determined with the aid of a Coulter Counter® Model ZBf and the percent inhibition calculated. […]
# L1210 cells = assay: In vivo anti-tumor activity, L1210, single i.p. injection; parameters: species or system BDF1 mice; conditions: for Maximal Effective Dose: single i.p. injection
# Description: About 24 hours after inoculation of the cells, the mice were injected intraperitoneally with varying dosages of complexes of the present invention. […] Long term survival signifies that animals were alive 60 days after inoculation with L1210 cells.
# L1210/PDD = type: in vivo, BDF1 mice; conditions: days 1,5,9
# Description: (§1) The anti-tumor activity of compound number 3 was evaluated against cells sensitive to (L1210/0) and resistant to (L1210/PDD) the standard platinum complex cis-diamminedichloroplatinum(II).
# L1210/0 leukemia cells = assay: In vivo anti-tumor activity, L1210 (L1210/0), multiple i.p. doses; parameters: species or system BDF1 mice; conditions: for Maximal Effective Dose: i.p. on days 1, 5 and 9; for LTS: survivors/treated 50 days after treatment
# Description: BDF1 mice were inoculated intraperitoneally with 10^6 L1210 cells. About 24 hours after inoculation of the cells, the mice were injected intraperitoneally with varying dosages of complexes of the present invention. Six mice were used for each dosage level in each experiment with an equal number of control mice inoculated with 10^6 L1210 cells and left untreated with a given complex. The results [%T/C=(survival time of treated animals/survival time of control animals)×100] are set forth below. Long term survival signifies that animals were alive 60 days after inoculation with L1210 cells.
# The procedure of Example 16 was repeated except that the treated animals were injected with multiple doses of the complex as indicated below:
# as §1
# The following complexes were tested in vivo oncolytic activity following 3 i.p. injections (days 1, 5, 9) according to the protocol described in Examples 16 and 17.
# BDF1 mice were innoculated intraperitoreally with 10^6 L1210 leukemia cells and treatment was begun on the next day (day 1). Two treatment schedules, i.e. single i.p. injection of the drug and i.p. injections on days 1, 5 and 9 according to the protocol described in Examples 16 and 17 were used.
# Male albino mice = assay: Acute toxicity, single intraperitoneal injection (Example 19); type: in vivo; conditions: single i.p.; for Calculated LD10 / Calculated LD50 / Calculated LD90: 14 days
# Description: Fourteen days after treatment all surviving mice were sacrified and the LD10, LD50 and LD90 were calculated.
# [2] = tested on: L1210 leukemia cells (L1210/PDD); assay: In vitro cytotoxicity / cross-resistance, L1210/PDD (L1210/DDP) cells resistant to cisdiamminedichloroplatinum(II); type: cell-based; conditions: for ID50 L1210/DDP: Tables VII and VIII, 5760 min; for ID50 L1210/PDD: 96 hours
# Description: Four ml of cell suspension were added to culture tubes and the appropriate concentration (0.01, 0.1, 1 or 10 μg/ml final drug concentration) was added. After 96 hours the cell concentration of control and experimental cultures were calculated with the aid of a Coulter Counter® Model ZBf and the percent inhibition calculated.
# [3] = BUN (RUN [sic]) with the acute lethality data (Table XIII); type: in vivo; conditions: mean + 1 S.D.
# [4] = Acute lethality, single intraperitoneal injection (Table XIII); type: in vivo
# B16 cells = assay: Melanotic melanoma test, i.p. inoculated B16 melanoma; type: in vivo, BDF1 mice; conditions: for Maximal Effective Dose: B16, i.p. days 1, 5 and 9; for % T/C / Long Term Survivors: B16, i.p. days 1, 5 and 9, at maximal effective dose; for Long Term Survivors: 60 days
# Description: The animals used were BDF1 mice, all of the same sex, weighing a minimum of 18 g. and all within a 4 g. weight range. There were 6 animals per test group. […] The test compounds were administered intraperitoneally on days 1, 5 and 9 at various doses. The animals were weighed and survivors were recorded on a regular basis for 60 days. The median survival time and the ratio of survival time for treated (T)/control (C) animals were calculated. […] The criterion for efficacy is T/C×100≥125%.
# [5] = Example 18, L1210/0, 25 mg/kg, days 1,5,9
# [6] = Example 18, L1210/0, 50 mg/kg, days 1,5,9
# [7] = Table IX, single i.p., at maximal effective dose
# [8] = Tables X and XI, days 1, 5 and 9, at maximal effective dose, alive 60 days after tumor inoculation
# [9] = Tables X and XI, i.p. on days 1, 5 and 9, at maximal effective dose
# [10] = L1210/0, protocol of Example 14, Tables VII and VIII
compound,measurement,setting,value
"NC1CCCCC1N.O.O=C1OC(C(O)CO)C([O-])=C1O.O=C1OC(C(O)CO)C([O-])=C1O.[Pt+2] (stereo not drawn) [Compound 3, cis-bis-ascorbato(DACH)Pt(II).1H2 O]",ID50,[1],5.0 µg/mL
same,% T/C,"L1210 cells; single i.p., 50 mg/kg",125%
same,% T/C,"L1210 cells; single i.p., 60 mg/kg",163%
same,% T/C,"L1210 cells; single i.p., 75 mg/kg",143%
same,% T/C,"L1210 cells; single i.p., 90 mg/kg",145%
same,% T/C,"L1210 cells; single i.p., 100 mg/kg",Toxic
same,% T/C,L1210/PDD; 6.25 mg/kg,115%
same,% T/C,L1210/PDD; 12.5 mg/kg,124%
same,% T/C,L1210/PDD; 25 mg/kg,135%
same,% T/C,L1210/PDD; 50 mg/kg,223%
same,SURVIVORS,L1210/PDD; 50 mg/kg,3/10
same,% T/C,L1210/PDD; 100 mg/kg,172%
same,% T/C,"L1210/0 leukemia cells; 5 mg/kg, days 1-9",142%
same,% T/C,"L1210/0 leukemia cells; 10 mg/kg, days 1,5,9",123%
same,% T/C,"L1210/0 leukemia cells; 10 mg/kg, days 1-9",184%
same,% T/C,"L1210/0 leukemia cells; 20 mg/kg, days 1,5,9",196%
same,Long Term Survivors,"L1210/0 leukemia cells; 20 mg/kg, days 1,5,9",1/6
same,% T/C,"L1210/0 leukemia cells; 20 mg/kg, days 1-9",239%
same,Long Term Survivors,"L1210/0 leukemia cells; 20 mg/kg, days 1-9",1/6
same,% T/C,"L1210/0 leukemia cells; 25 mg/kg, days 1,5,9",176%
same,% T/C,"L1210/0 leukemia cells; 30 mg/kg, days 1,5,9",257%
same,Long Term Survivors,"L1210/0 leukemia cells; 30 mg/kg, days 1,5,9",1/6
same,% T/C,"L1210/0 leukemia cells; 30 mg/kg, days 1,5,9,13",273%
same,Long Term Survivors,"L1210/0 leukemia cells; 30 mg/kg, days 1,5,9,13",1/6
same,% T/C,"L1210/0 leukemia cells; Example 18, L1210/0, 6.25 mg/kg, days 1,5,9",117%
same,% T/C,"L1210/0 leukemia cells; Example 18, L1210/0, 12.5 mg/kg, days 1,5,9",135%
same,% T/C,L1210/0 leukemia cells; [5],181%
same,SURVIVORS,L1210/0 leukemia cells; [5],2/10
same,% T/C,L1210/0 leukemia cells; [6],247%
same,SURVIVORS,L1210/0 leukemia cells; [6],1/10
same,% T/C,"L1210/0 leukemia cells; Example 18, L1210/0, 100 mg/kg, days 1,5,9",104%
same,DEATHS/TREATED,Male albino mice; 110 mg/kg,1/6
same,DEATHS/TREATED,Male albino mice; 125 mg/kg,2/6
same,DEATHS/TREATED,Male albino mice; 140 mg/kg,4/6
same,DEATHS/TREATED,Male albino mice; 175 mg/kg,6/6
same,Calculated LD10,Male albino mice,108 mg/kg
same,Calculated LD50,Male albino mice,125 mg/kg
same,Calculated LD90,Male albino mice,150 mg/kg
same,ID50 L1210/DDP,[2],5.0 µg/mL
same,ID50 L1210/PDD,[2],2.6 µg/mL
"O.O.O=C([O-])C[N-]CC(=O)O.[NH-]C1CCCCC1[NH-].[Pt] [Compound 11, iminodiacetato(DACH)Pt(II).2H2 O]",ID50,[1],4.2 µg/mL
same,Maximal Effective Dose,L1210 cells; Table IX,50 mg/kg
same,% T/C,L1210 cells; [7],163%
same,% T/C,"L1210 cells; single i.p., 50 mg/kg",163%
same,% T/C,"L1210 cells; single i.p., 100 mg/kg",109%
same,toxicity remark,"L1210 cells; single i.p., 100 mg/kg",Apparent Toxicity
same,RUN,[3],23 ± 4 mg/100 ml
same,% T/C,"L1210/0 leukemia cells; 25 mg/kg, days 1,5,9",199%
same,% T/C,"L1210/0 leukemia cells; 50 mg/kg, days 1,5,9",220%
same,Long Term Survivors,"L1210/0 leukemia cells; 50 mg/kg, days 1,5,9",2/6
same,Long Term Survivors,L1210/0 leukemia cells; [8],2/6
same,Maximal Effective Dose,L1210/0 leukemia cells; Tables X and XI,50 mg/kg
same,% T/C,L1210/0 leukemia cells; [9],220%
same,LD10,[4],53 mg/kg
same,LD50,[4],107 mg/kg
same,LD90,[4],169 mg/kg
same,DEATHS/TREATED,Male albino mice; 85 mg/kg,1/6
same,DEATHS/TREATED,Male albino mice; 100 mg/kg,3/6
same,DEATHS/TREATED,Male albino mice; 125 mg/kg,5/6
same,DEATHS/TREATED,Male albino mice; 158 mg/kg,4/6
same,DEATHS/TREATED,Male albino mice; 200 mg/kg,6/6
same,Calculated LD10,Male albino mice,80 mg/kg
same,Calculated LD50,Male albino mice,115 mg/kg
same,Calculated LD90,Male albino mice,155 mg/kg
same,ID50 L1210/PDD,[2],1.6 µg/mL
"CN(CC(=O)[O-])CC(=O)[O-].NC1CCCCC1N.O.[Pt+2] [Compound 28, N--Methyliminodiacetato(DACH)Pt(II).1H2 O]",ID50,[1],1.6 µg/mL
same,Maximal Effective Dose,L1210 cells; Table IX,25 mg/kg
same,% T/C,L1210 cells; [7],180%
same,% T/C,"L1210 cells; single i.p., 12.5 mg/kg",161%
same,% T/C,"L1210 cells; single i.p., 25 mg/kg",185%
same,% T/C,"L1210 cells; single i.p., 50 mg/kg",Toxic
same,RUN,[3],22 ± 3 mg/100 ml
same,Long Term Survivors,L1210/0 leukemia cells; [8],5/6
same,Maximal Effective Dose,L1210/0 leukemia cells; Tables X and XI,12.5 mg/kg
same,% T/C,L1210/0 leukemia cells; [9],550%
same,LD10,[4],49 mg/kg
same,LD50,[4],92 mg/kg
same,LD90,[4],170 mg/kg
same,Maximal Effective Dose,B16 cells,25 mg/kg
same,% T/C,B16 cells,205%
same,Long Term Survivors,B16 cells,0/6
same,ID50 L1210/DDP,[2],1.3 µg/mL
"NC1CCCCC1N.O.O.O=C([O-])CN(CC(=O)[O-])c1ccccc1.[Pt+2] [Compound 37, N--Phenyliminodiacetato(DACH)Pt(II).2H2 O]",ID50,[1],1.0 µg/mL
same,ID50 L1210/0,[1]; [10],2.3 µg/mL
same,Maximal Effective Dose,L1210 cells; Table IX,12.5 mg/kg
same,% T/C,L1210 cells; [7],172%
same,% T/C,"L1210 cells; single i.p., 12.5 mg/kg",172%
same,% T/C,"L1210 cells; single i.p., 25 mg/kg",156%
same,% T/C,"L1210 cells; single i.p., 50 mg/kg",108%
same,RUN,[3],18 ± 1 mg/100 ml
same,% T/C,"L1210/0 leukemia cells; 6.25 mg/kg i.p., days 1, 5, 9, 30 day observation period",246%
same,LTS,"L1210/0 leukemia cells; 6.25 mg/kg, days 1, 5, 9",3/6
same,% T/C,"L1210/0 leukemia cells; 12.5 mg/kg i.p., days 1, 5, 9, 30 day observation period",298%
same,LTS,"L1210/0 leukemia cells; 12.5 mg/kg, days 1, 5, 9",5/6
same,% T/C,"L1210/0 leukemia cells; 25 mg/kg i.p., days 1, 5, 9, 30 day observation period",242%
same,LTS,"L1210/0 leukemia cells; 25 mg/kg, days 1, 5, 9",1/6
same,Long Term Survivors,L1210/0 leukemia cells; [8],4/6
same,Maximal Effective Dose,L1210/0 leukemia cells; Tables X and XI,12.5 mg/kg
same,% T/C,L1210/0 leukemia cells; [9],537%
same,LD10,[4],56 mg/kg
same,LD50,[4],81 mg/kg
same,LD90,[4],135 mg/kg
same,Maximal Effective Dose,B16 cells,25 mg/kg
same,% T/C,B16 cells,215%
same,Long Term Survivors,B16 cells,0/6
same,ID50 L1210/DDP,[2],2.6 µg/mL
"N.N.[Cl][Pt][Cl] [DDP, diamminedichloroplatinum II, reference compound]",ID50 L1210/0,"[1]; L1210/0, Example 15 table",0.1 µg/mL
same,Maximal Effective Dose,L1210 cells; Table IX,9 mg/kg
same,% T/C,L1210 cells; [7],150%
same,Long Term Survivors,L1210/0 leukemia cells; [8],1/6
same,Maximal Effective Dose,L1210/0 leukemia cells; Tables X and XI,5 mg/kg
same,% T/C,L1210/0 leukemia cells; [9],210% and 220%
same,Maximal Effective Dose,B16 cells,5 mg/kg
same,% T/C,B16 cells,172%
same,Long Term Survivors,B16 cells,1/6
same,ID50 L1210/PDD,[2],5.5 µg/mL
mono-N--phenyliminodiacetato [Identifier No. 14a],ID50 L1210/0,[1]; [10],0.7 µg/mL
same,Long Term Survivors,L1210/0 leukemia cells; [8],4/6
same,Maximal Effective Dose,L1210/0 leukemia cells; Tables X and XI,6.25 mg/kg
same,% T/C,L1210/0 leukemia cells; [9],578%
same,Maximal Effective Dose,B16 cells,25 mg/kg
same,% T/C,B16 cells,160%
same,Long Term Survivors,B16 cells,3/6
same,ID50 L1210/DDP,[2],0.6 µg/mL
